Experimental data published in ChEMBL document CHEMBL1201862, “PubChem BioAssay data set” (2004).
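Dose response: 5 concentrations. Exposure: 48 h. Format: 96-well plates. Endpoint: linear interpolation; highest concentration if not reached. Here, GI50 denotes the concentration required for 50% inhibition of growth.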 Activity calls are given as the source filed them. Cut-off read from the data, not from the text of the source: active = GI50 up to about 1.1 µM and inactive = higher.

Legend:
Experiment in all cases: growth of human tumour cells (NCI), 48 h
786-0 = test system: 786-0
OVCAR-3 = test system: OVCAR-3
PC-3 = test system: PC-3
SNB-19 = test system: SNB-19
HOP-92 = test system: HOP-92
HT-29 = test system: HT-29
ACHN = test system: ACHN
CCRF-CEM = test system: CCRF-CEM
UO-31 = test system: UO-31
OVCAR-5 = test system: OVCAR-5
M14 = test system: M14
MCF7 = test system: MCF7
A549 = test system: A549
SF-295 = test system: SF-295
NCI-H460 = test system: NCI-H460
CAKI-1 = test system: CAKI-1
HL-60 = test system: HL-60
DU-145 = test system: DU-145
SK-MEL-2 = test system: SK-MEL-2
HOP-62 = test system: HOP-62
MDA-MB-231 = test system: MDA-MB-231
SK-MEL-5 = test system: SK-MEL-5
NCI/ADR-RES = test system: NCI/ADR-RES
SK-MEL-28 = test system: SK-MEL-28
K562 = test system: K562
HCT-15 = test system: HCT-15
NCI-H23 = test system: NCI-H23
MDA-N = test system: MDA-N
BT-549 = test system: BT-549
MDA-MB-435 = test system: MDA-MB-435
KM12 = test system: KM12
Malme-3M = test system: Malme-3M
U-251 = test system: U-251
HCC 2998 = test system: HCC 2998
EKVX = test system: EKVX
SN12C = test system: SN12C
OVCAR-4 = test system: OVCAR-4
COLO 205 = test system: COLO 205
SR = test system: SR
TK-10 = test system: TK-10
RPMI-8226 = test system: RPMI-8226
OVCAR-8 = test system: OVCAR-8
UACC-257 = test system: UACC-257
LOX IMVI = test system: LOX IMVI
HCT-116 = test system: HCT-116
MOLT-4 = test system: MOLT-4
SNB-75 = test system: SNB-75
UACC-62 = test system: UACC-62
SF-268 = test system: SF-268
Hs-578T = test system: Hs-578T
A498 = test system: A498
T47D = test system: T47D
SK-OV-3 = test system: SK-OV-3
IGROV-1 = test system: IGROV-1
SW-620 = test system: SW-620
NCI-H522 = test system: NCI-H522
SF-539 = test system: SF-539
RXF 393 = test system: RXF 393
NCI-H226 = test system: NCI-H226

Q: Which results are given for `O=C(O)CCCn1nnc2c(=O)[nH][nH]c(=O)c21`?
A: GI50 (786-0): > 100 µM (inactive); GI50 (OVCAR-3): > 100 µM (inactive); GI50 (PC-3): > 100 µM (inactive); GI50 (SNB-19): > 100 µM (inactive); GI50 (HOP-92): > 100 µM (inactive); GI50 (HT-29): > 100 µM (inactive); GI50 (ACHN): > 100 µM (inactive); GI50 (CCRF-CEM): > 100 µM (inactive); GI50 (UO-31): > 100 µM (inactive); GI50 (OVCAR-5): > 100 µM (inactive); GI50 (M14): > 100 µM (inactive); GI50 (MCF7): > 100 µM (inactive); GI50 (A549): > 100 µM (inactive); GI50 (SF-295): > 100 µM (inactive); GI50 (NCI-H460): > 100 µM (inactive); GI50 (CAKI-1): > 100 µM (inactive); GI50 (HL-60): > 100 µM (inactive); GI50 (DU-145): > 100 µM (inactive); GI50 (SK-MEL-2): > 100 µM (inactive); GI50 (HOP-62): > 100 µM (inactive); GI50 (MDA-MB-231): > 100 µM (inactive); GI50 (SK-MEL-5): > 100 µM (inactive); GI50 (NCI/ADR-RES): > 100 µM (inactive); GI50 (SK-MEL-28): > 100 µM (inactive); GI50 (K562): > 100 µM (inactive); GI50 (HCT-15): > 100 µM; GI50 (NCI-H23): > 100 µM (inactive); GI50 (MDA-N): > 100 µM (inactive); GI50 (BT-549): > 100 µM (inactive); GI50 (MDA-MB-435): > 100 µM (inactive); GI50 (KM12): > 100 µM (inactive); GI50 (Malme-3M): > 100 µM (inactive); GI50 (U-251): > 100 µM (inactive); GI50 (HCC 2998): > 100 µM (inactive); GI50 (EKVX): > 100 µM (inactive); GI50 (SN12C): > 100 µM (inactive); GI50 (OVCAR-4): > 100 µM (inactive); GI50 (COLO 205): > 100 µM (inactive); GI50 (SR): > 100 µM (inactive); GI50 (TK-10): > 100 µM (inactive); GI50 (RPMI-8226): > 100 µM (inactive); GI50 (OVCAR-8): > 100 µM (inactive); GI50 (UACC-257): > 100 µM (inactive); GI50 (LOX IMVI): > 100 µM (inactive); GI50 (HCT-116): > 100 µM (inactive); GI50 (MOLT-4): > 100 µM (inactive)

Q: How did the GI50 (786-0) turn out when `CC(=O)OC(CN1CCN(c2ccccn2)CC1)Cn1sc2nc(C)cc(C)c2c1=O` (centres undefined) was run?
A: 14.9 µM (inactive)

Q: What about the GI50 (OVCAR-3) of the same compound?
A: 21.2 µM (inactive)

Q: And the GI50 (PC-3)?
A: 17.5 µM (inactive)

Q: What about the GI50 (SNB-19) of the same compound?
A: > 100 µM (inactive)

Q: And the GI50 (HOP-92)?
A: 48.3 µM (inactive)

Q: And the GI50 (HT-29)?
A: 18.6 µM (inactive)

Q: What about the GI50 (SNB-75) of the same compound?
A: 16 µM (inactive)

Q: And the GI50 (ACHN)?
A: 16.4 µM (inactive)

Q: And the GI50 (CCRF-CEM)?
A: 5.78 µM (inactive)

Q: And the GI50 (UO-31)?
A: 16.3 µM (inactive)

Q: And the GI50 (OVCAR-5)?
A: 17.5 µM (inactive)

Q: What about the GI50 (M14) of the same compound?
A: 16.5 µM (inactive)

Q: What about the GI50 (MCF7) of the same compound?
A: 17.9 µM (inactive)

Q: And the GI50 (A549)?
A: 20.6 µM (inactive)

Q: And the GI50 (SF-295)?
A: > 100 µM (inactive)

Q: What about the GI50 (NCI-H460) of the same compound?
A: 18.5 µM (inactive)

Q: And the GI50 (CAKI-1)?
A: 18.9 µM (inactive)

Q: And the GI50 (HL-60)?
A: 16.8 µM (inactive)

Q: What about the GI50 (UACC-62) of the same compound?
A: 16.4 µM (inactive)

Q: What about the GI50 (DU-145) of the same compound?
A: 19 µM (inactive)

Q: And the GI50 (SK-MEL-2)?
A: 18.3 µM (inactive)

Q: What about the GI50 (HOP-62) of the same compound?
A: 28.8 µM (inactive)

Q: What about the GI50 (MDA-MB-231) of the same compound?
A: 17.9 µM (inactive)

Q: What about the GI50 (SK-MEL-5) of the same compound?
A: 13.2 µM (inactive)

Q: And the GI50 (SF-268)?
A: 17.3 µM (inactive)

Q: What about the GI50 (Hs-578T) of the same compound?
A: 20.7 µM (inactive)

Q: And the GI50 (NCI/ADR-RES)?
A: 27 µM (inactive)

Q: What about the GI50 (SK-MEL-28) of the same compound?
A: 20 µM (inactive)

Q: And the GI50 (K562)?
A: 32.7 µM (inactive)

Q: What about the GI50 (A498) of the same compound?
A: 18.1 µM (inactive)

Q: What about the GI50 (T47D) of the same compound?
A: 28 µM (inactive)

Q: What about the GI50 (SK-OV-3) of the same compound?
A: 17.9 µM (inactive)

Q: And the GI50 (HCT-15)?
A: 20 µM

Q: And the GI50 (NCI-H23)?
A: 20.8 µM (inactive)

Q: What about the GI50 (BT-549) of the same compound?
A: 18.6 µM (inactive)

Q: What about the GI50 (MDA-MB-435) of the same compound?
A: 16.9 µM (inactive)

Q: And the GI50 (IGROV-1)?
A: 18.2 µM (inactive)

Q: And the GI50 (KM12)?
A: 21.4 µM (inactive)

Q: What about the GI50 (Malme-3M) of the same compound?
A: 18.6 µM (inactive)

Q: And the GI50 (U-251)?
A: 18.1 µM (inactive)

Q: And the GI50 (HCC 2998)?
A: 19.5 µM (inactive)

Q: What about the GI50 (EKVX) of the same compound?
A: 17.3 µM (inactive)

Q: And the GI50 (SN12C)?
A: 18.9 µM (inactive)

Q: What about the GI50 (SW-620) of the same compound?
A: 26.4 µM (inactive)

Q: And the GI50 (OVCAR-4)?
A: 22.4 µM (inactive)

Q: And the GI50 (COLO 205)?
A: 15.8 µM (inactive)

Q: What about the GI50 (SR) of the same compound?
A: 4.61 µM (inactive)

Q: What about the GI50 (NCI-H522) of the same compound?
A: 7.03 µM (inactive)

Q: And the GI50 (TK-10)?
A: 17.3 µM (inactive)

Q: What about the GI50 (RPMI-8226) of the same compound?
A: 5.12 µM (inactive)

Q: What about the GI50 (SF-539) of the same compound?
A: 14.6 µM (inactive)

Q: What about the GI50 (RXF 393) of the same compound?
A: 20.2 µM (inactive)

Q: What about the GI50 (OVCAR-8) of the same compound?
A: 28.7 µM (inactive)

Q: And the GI50 (NCI-H226)?
A: > 100 µM (inactive)

Q: What about the GI50 (UACC-257) of the same compound?
A: 17.7 µM (inactive)

Q: And the GI50 (LOX IMVI)?
A: 21.3 µM (inactive)

Q: What about the GI50 (HCT-116) of the same compound?
A: 16.3 µM (inactive)

Q: What about the GI50 (MOLT-4) of the same compound?
A: 5.58 µM (inactive)
